Experimental data from ChEMBL document CHEMBL1201862, “PubChem BioAssay data set” (2004).
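Cells were grown in 96-well plates and exposed to each compound for 48 hours at five concentrations; endpoints were interpolated linearly between bracketing concentrations, or set to the highest concentration if not reached. GI50 marks 50% less growth.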 Activity calls are given as the source filed them. No stated cut-off is given here; in the data, active = GI50 up to about 1.1 µM and inactive = higher.

Columns and labels:
Test in all cases: DTP human tumour cell line panel, 48 h
COLO 205 = system: COLO 205
DU-145 = system: DU-145
EKVX = system: EKVX
HCT-15 = system: HCT-15
HOP-62 = system: HOP-62
HOP-92 = system: HOP-92
Hs-578T = system: Hs-578T
KM12 = system: KM12
M14 = system: M14
MCF7 = system: MCF7
MDA-MB-231 = system: MDA-MB-231
MDA-MB-435 = system: MDA-MB-435
MDA-N = system: MDA-N
MOLT-4 = system: MOLT-4
OVCAR-3 = system: OVCAR-3
OVCAR-8 = system: OVCAR-8
SF-268 = system: SF-268
SK-MEL-28 = system: SK-MEL-28
SN12C = system: SN12C
SNB-75 = system: SNB-75

Row | Structure (SMILES) | GI50 (COLO 205) | GI50 (DU-145) | GI50 (EKVX) | GI50 (HCT-15) | GI50 (HOP-62) | GI50 (HOP-92) | GI50 (Hs-578T) | GI50 (KM12) | GI50 (M14) | GI50 (MCF7) | GI50 (MDA-MB-231) | GI50 (MDA-MB-435) | GI50 (MDA-N) | GI50 (MOLT-4) | GI50 (OVCAR-3) | GI50 (OVCAR-8) | GI50 (SF-268) | GI50 (SK-MEL-28) | GI50 (SN12C) | GI50 (SNB-75)
1 | COc1cc(-c2cc(O)c(-c3ccc4ccccc4n3)c(O)n2)cc(OC)c1OC | 38.7 µM (inactive) | 44.9 µM (inactive) | > 52 µM (inactive) | 29 µM | 53.3 µM (inactive) | 26.2 µM (inactive) | 57.4 µM (inactive) | 14.8 µM (inactive) | 25.4 µM (inactive) | 39.1 µM (inactive) | 36.6 µM (inactive) | 2.07 µM (inactive) | 3.56 µM (inactive) | 6.97 µM (inactive) | 12.4 µM (inactive) | > 32.4 µM (inactive) | 43 µM (inactive) | 42.1 µM (inactive) | > 56.6 µM (inactive) | 17.9 µM (inactive)
2 | O=C1Nc2ccccc2C1(O)Cc1ccccn1 (configuration not stated) | > 100 µM (inactive) | > 100 µM (inactive) | > 100 µM (inactive) | > 100 µM | > 100 µM (inactive) | > 100 µM (inactive) | > 100 µM (inactive) | > 100 µM (inactive) | > 100 µM (inactive) | > 100 µM (inactive) | > 100 µM (inactive) | > 100 µM (inactive) | > 100 µM (inactive) |  | > 100 µM (inactive) | > 100 µM (inactive) | > 100 µM (inactive) | > 100 µM (inactive) | > 100 µM (inactive) | 43.1 µM (inactive)
3 | C=CCCC(=O)C(=[N+]=[N-])C(=O)CCC(=O)c1ccccc1 |  | > 10 µM (inactive) | > 10 µM (inactive) | > 10 µM | > 10 µM (inactive) | > 10 µM (inactive) | > 10 µM (inactive) |  | > 10 µM (inactive) | > 10 µM (inactive) | > 10 µM (inactive) | > 10 µM (inactive) | > 10 µM (inactive) | > 10 µM (inactive) | > 10 µM (inactive) | > 10 µM (inactive) | > 10 µM (inactive) | > 10 µM (inactive) | > 10 µM (inactive) | 8.38 µM (inactive)
4 | CC(=O)O[C@H]1CC[C@@]2(C)C(=CC[C@@H]3[C@@H]2CC[C@](C)(c2nnc(C)o2)[C@H]3CC#N)C1 | > 100 µM (inactive) | > 100 µM (inactive) | > 100 µM (inactive) | > 100 µM | > 100 µM (inactive) | > 100 µM (inactive) | 0.0735 µM (active) | > 100 µM (inactive) | > 100 µM (inactive) | > 100 µM (inactive) | > 100 µM (inactive) | > 100 µM (inactive) | > 100 µM (inactive) | > 100 µM (inactive) | > 100 µM (inactive) | > 100 µM (inactive) | > 100 µM (inactive) |  | > 100 µM (inactive) | 51.6 µM (inactive)
5 | Clc1sc(Cl)c2c1[C@@H](Cl)C[C@@H]2Br | > 100 µM (inactive) | > 100 µM (inactive) | > 100 µM (inactive) | 97.1 µM | > 100 µM (inactive) | 37.4 µM (inactive) | 65.8 µM (inactive) | 90.6 µM (inactive) | > 100 µM (inactive) | 43.8 µM (inactive) | > 100 µM (inactive) | 40.6 µM (inactive) | 84.3 µM (inactive) | 18.6 µM (inactive) |  | > 100 µM (inactive) | > 100 µM (inactive) | > 100 µM (inactive) | > 100 µM (inactive) | > 100 µM (inactive)
6 | COc1ccccc1Cc1ccc(C2C=CC3(CC(=O)C=C3C)C(=O)C2)o1 (configuration not stated) | 23.2 µM (inactive) | 29.4 µM (inactive) | 34.8 µM (inactive) | 25.6 µM | 15 µM (inactive) | 20.5 µM (inactive) | 20.2 µM (inactive) | 29 µM (inactive) | 32.1 µM (inactive) | 17.1 µM (inactive) | 21 µM (inactive) | 19.4 µM (inactive) | 18.5 µM (inactive) | 16 µM (inactive) | 10.2 µM (inactive) | 17.1 µM (inactive) | 20.3 µM (inactive) | 34.4 µM (inactive) | 22 µM (inactive) | 
7 | NC(=O)CO/N=C1/C(=C2/C(=O)Nc3ccccc32)Nc2ccccc21 | 1.86 µM (inactive) | 1.67 µM (inactive) | > 100 µM (inactive) | 2 µM | 22.6 µM (inactive) | > 100 µM (inactive) | > 100 µM (inactive) | 0.247 µM (active) | 10.4 µM (inactive) | 1.38 µM (inactive) | > 100 µM (inactive) | 21.1 µM (inactive) | 53 µM (inactive) | 3.44 µM (inactive) | 4.49 µM (inactive) | 62.5 µM (inactive) | > 100 µM (inactive) | > 100 µM (inactive) | > 100 µM (inactive) | > 100 µM (inactive)
8 | Cn1cc[n+](-c2cc(=O)n(C)c(=O)[n-]2)c1 | 96.4 µM (inactive) | > 100 µM (inactive) | 49.9 µM (inactive) | > 100 µM | > 100 µM (inactive) | > 100 µM (inactive) | 42.8 µM (inactive) | > 100 µM (inactive) | > 100 µM (inactive) | 93.5 µM (inactive) | > 100 µM (inactive) | > 100 µM (inactive) | > 100 µM (inactive) | 77.8 µM (inactive) | 80 µM (inactive) |  | > 100 µM (inactive) | > 100 µM (inactive) | > 100 µM (inactive) | 
9 | O=c1c2cc(Br)cc(Br)c2[nH]c(=S)n1-c1ccc(/N=N/c2ccc(O)c3cccnc23)cc1 | 32.1 µM (inactive) | 33 µM (inactive) | 38.6 µM (inactive) |  | 33.3 µM (inactive) | 18 µM (inactive) | > 100 µM (inactive) | > 100 µM (inactive) | 39.7 µM (inactive) | 12.9 µM (inactive) | 32.2 µM (inactive) | 35.4 µM (inactive) | 31.4 µM (inactive) | 24.8 µM (inactive) | 14 µM (inactive) | 23.3 µM (inactive) | 17.2 µM (inactive) | 76.9 µM (inactive) | 44.5 µM (inactive) | 29.2 µM (inactive)
10 | CNC(=O)c1ccc(C(=O)NCCCCCN(O)C(=O)CCC(=O)NCCCCCN(O)C(=O)CCC(=O)NCCCCCN(O)C(C)=O)c(O)c1O | 27.1 µM (inactive) | 55.1 µM (inactive) |  | 21.9 µM | 21.4 µM (inactive) | 37.4 µM (inactive) | > 100 µM (inactive) | 58.5 µM (inactive) | 59.8 µM (inactive) | 48.2 µM (inactive) | 53.7 µM (inactive) | > 100 µM (inactive) | > 100 µM (inactive) |  | 8.57 µM (inactive) | 30.8 µM (inactive) | 23.1 µM (inactive) | 42 µM (inactive) | 94.6 µM (inactive) | > 100 µM (inactive)
11 | COc1ccc(/N=N/c2c(C)c(C#N)c(=S)n(C3OC(CO)C(O)C(O)C3O)c2C)cc1 (configuration not stated) | 58.3 µM (inactive) | 44.7 µM (inactive) |  | 53.1 µM | 42.3 µM (inactive) | 16.9 µM (inactive) | 41.4 µM (inactive) | 73.1 µM (inactive) | 26.7 µM (inactive) | 33 µM (inactive) | 62.8 µM (inactive) | 38.8 µM (inactive) | 30.6 µM (inactive) | 21.8 µM (inactive) | 34.4 µM (inactive) |  | 45.9 µM (inactive) | 30.8 µM (inactive) |  | 83.6 µM (inactive)
12 | C#C[C@]1(O)CC[C@H]2[C@@H]3CCC4=C/C(=N/NC(=O)c5cccc6c(=O)c7ccccc7[nH]c56)CCC4[C@H]3CC[C@@]21C (some centres not stated) | 70 µM (inactive) | > 100 µM (inactive) | 77.8 µM (inactive) | 73.8 µM | > 100 µM (inactive) | > 100 µM (inactive) | 32.1 µM (inactive) | 25.5 µM (inactive) | 59.8 µM (inactive) | 43.4 µM (inactive) | > 100 µM (inactive) | 38.7 µM (inactive) | 50.4 µM (inactive) | 24.1 µM (inactive) | 32.3 µM (inactive) | 21.3 µM (inactive) | > 100 µM (inactive) |  | > 100 µM (inactive) | 15 µM (inactive)
13 | O=C1Nc2ccccc2/C1=C\c1c(Cl)[nH]c2ccccc12 | 0.288 µM (active) | 3.35 µM (inactive) | 1.06 µM (active) | 0.608 µM | 0.787 µM (active) | 0.48 µM (active) | 0.409 µM (active) | 0.397 µM (active) | 0.873 µM (active) | 0.366 µM (active) | 1.45 µM (inactive) | 0.208 µM (active) | 0.24 µM (active) | 0.522 µM (active) | 0.592 µM (active) | 2.42 µM (inactive) | 1.12 µM (active) | 0.299 µM (active) | 2.85 µM (inactive) | 
14 | C#CCOC(=O)c1ccccc1OC(C)=O | > 100 µM (inactive) | > 100 µM (inactive) | > 100 µM (inactive) | > 100 µM | > 100 µM (inactive) | > 100 µM (inactive) | > 100 µM (inactive) | > 100 µM (inactive) | > 100 µM (inactive) | > 100 µM (inactive) | > 100 µM (inactive) | > 100 µM (inactive) | > 100 µM (inactive) | > 100 µM (inactive) |  | > 100 µM (inactive) | > 100 µM (inactive) |  | > 100 µM (inactive) | > 100 µM (inactive)
15 | Clc1n[nH]c2ccccc12 | > 100 µM (inactive) | > 100 µM (inactive) | 86.5 µM (inactive) | > 100 µM | > 100 µM (inactive) | > 100 µM (inactive) | > 100 µM (inactive) | > 100 µM (inactive) | > 100 µM (inactive) | > 100 µM (inactive) | > 100 µM (inactive) | > 100 µM (inactive) | > 100 µM (inactive) | > 100 µM (inactive) | > 100 µM (inactive) | > 100 µM (inactive) | > 100 µM (inactive) | > 100 µM (inactive) | > 100 µM (inactive) | > 100 µM (inactive)
